From patent US20230357447A1, “TUMOR ACTIVATED MULTISPECIFIC ANTIBODIES FOR TARGETING CD28 AND PD-L1 AND METHODS OF USE THEREOF” (Janux Therapeutics, Inc., priority 2022, published 2023)
pKd: −log10 of the molar value.

Assays:
[1] = system: anti-CD28 scFv (SEQ ID NO: 9); experiment: Octet bio-layer interferometry kinetic binding of anti-CD28 scFv to peptides; set-up: species or system human; conditions: Octet RED96, 1:1 binding model
Experimental: (§1) Association and dissociation signals were recorded in real time and analyzed using a 1:1 binding model within the instrument software. Analysis using a 1:1 binding model enabled the calculation of the on and off rate constants as well as affinity, KD.
as §1

Ab-12 = experiment: Octet bio-layer interferometry kinetic binding of Ab-12 to peptides; conditions: Octet RED96, 1:1 binding model; for pKd: biotinylated peptide loaded at 200 nM on streptavidin biosensors, Ab-12 100, 50, 25, 12.5 nM; for kdis: peptide on sensor, Ab-12 100-12.5 nM
Experimental: Briefly, streptavidin biosensors were loaded with biotinylated peptides and baselined in buffer. […] After a short association period, sensors were transferred into buffer and the dissociation of bound anti-CD28 scFv or Ab-12 was measured. The timing and steps of the experiment are shown in the accompanying table. Association and dissociation signals were recorded in real time and analyzed using a 1:1 binding model within the instrument software. Analysis using a 1:1 binding model enabled the calculation of the on and off rate constants as well as affinity, KD.

[2] = biotinylated peptide loaded on streptavidin biosensor, anti-CD28 scFv in solution
[3] = peptide on sensor, CD28 scFv 100-12.5 nM

Row | SMILES | kdis [1, 2] [s⁻¹] | also measured
1 | CC[C@H](C)[C@@H]1NC(=O)[C@@H]2CCCN2C(=O)[C@@H](NC(=O)[C@H](Cc2c[nH]c3ccccc23)NC(=O)[C@H](CC(=O)O)NC(=O)[C@@H](N)CCSC)CSSC[C@@H](C(=O)N[C@@H](Cc2ccccc2)C(=O)N[C@@H](CC(N)=O)C(=O)O)NC(=O)[C@H](CCC(=O)O)NC(=O)[C@H](CO)NC(=O)[C@H](Cc2c[nH]c3ccccc23)NC(=O)[C@H](CC(C)C)NC(=O)[C@H](Cc2ccc(O)cc2)NC1=O [Peptide-33] | 0.00153 | –
2 | CSCC[C@@H]1NC(=O)[C@H](CC(=O)O)NC(=O)[C@H](CCCNC(=N)N)NC(=O)[C@@H]2CCCN2C(=O)[C@@H](NC(=O)[C@H](Cc2c[nH]c3ccccc23)NC(=O)[C@H](CC(=O)O)NC(=O)[C@@H](N)CCSC)CSSC[C@@H](C(=O)N[C@@H](Cc2ccccc2)C(=O)N[C@@H](C)C(=O)O)NC(=O)[C@H](CCC(=O)O)NC(=O)[C@H](CO)NC(=O)[C@H](Cc2c[nH]c3ccccc23)NC1=O [Peptide-43] | 0.0032 | –
3 | CSCC[C@H](N)C(=O)N[C@@H](CC(=O)O)C(=O)N[C@@H](Cc1c[nH]c2ccccc12)C(=O)N[C@H]1CSSC[C@@H](C(=O)N[C@@H](Cc2ccccc2)C(=O)N[C@@H](CO)C(=O)O)NC(=O)[C@H](CC(C)C)NC(=O)[C@H](Cc2c[nH]cn2)NC(=O)[C@H](Cc2c[nH]c3ccccc23)NC(=O)[C@H](CC(C)C)NC(=O)[C@H](CC(=O)O)NC(=O)[C@H](CCCNC(=N)N)NC(=O)[C@@H]2CCCN2C1=O [Peptide-39] | 0.00265 | –
4 | CSCC[C@H](N)C(=O)N[C@@H](CC(=O)O)C(=O)N[C@@H](Cc1c[nH]c2ccccc12)C(=O)N[C@H]1CSSC[C@@H](C(=O)N[C@@H](Cc2ccccc2)C(=O)N[C@@H](Cc2ccccc2)C(=O)O)NC(=O)[C@H](CCC(=O)O)NC(=O)[C@H](CO)NC(=O)[C@H](Cc2c[nH]c3ccccc23)NC(=O)[C@H](CC(C)C)NC(=O)[C@H](CC(=O)O)NC(=O)[C@H](CCCNC(=N)N)NC(=O)[C@@H]2CCCN2C1=O [Peptide-40] | 0.0031 | –
5 | CSCC[C@H](N)C(=O)N[C@@H](CC(=O)O)C(=O)N[C@@H](Cc1c[nH]c2ccccc12)C(=O)N[C@H]1CSSC[C@@H](C(=O)N[C@@H](Cc2ccccc2)C(=O)N[C@@H](Cc2ccccc2)C(=O)O)NC(=O)[C@H](CC(=O)O)NC(=O)[C@H](C(C)C)NC(=O)[C@H](Cc2c[nH]c3ccccc23)NC(=O)[C@H](CCCNC(=N)N)NC(=O)[C@H](CCC(=O)O)NC(=O)[C@H](CCCNC(=N)N)NC(=O)[C@@H]2CCCN2C1=O [Peptide-9] | 0.0115 | kdis [1, 3]: 0.0123 s⁻¹; pKd (Ab-12): 7.73; kdis (Ab-12): 0.00317 s⁻¹
6 | CSCC[C@H](N)C(=O)N[C@@H](CC(=O)O)C(=O)N[C@@H](Cc1c[nH]c2ccccc12)C(=O)N[C@H]1CSSC[C@@H](C(=O)N[C@@H](Cc2ccccc2)C(=O)N[C@@H](C)C(=O)O)NC(=O)[C@H](CCC(=O)O)NC(=O)[C@H](Cc2c[nH]cn2)NC(=O)[C@H](Cc2c[nH]c3ccccc23)NC(=O)[C@H](CC(C)C)NC(=O)[C@H](CC(=O)O)NC(=O)[C@H](CCCNC(=N)N)NC(=O)[C@@H]2CCCN2C1=O [Peptide-38] | 0.00277 | –
7 | CSCC[C@H](N)C(=O)N[C@@H](CC(=O)O)C(=O)N[C@@H](Cc1c[nH]c2ccccc12)C(=O)N[C@H]1CSSC[C@@H](C(=O)N[C@@H](Cc2ccccc2)C(=O)N[C@@H](C)C(=O)O)NC(=O)[C@H](CC(C)C)NC(=O)[C@H](CC(=O)O)NC(=O)[C@H](Cc2c[nH]c3ccccc23)NC(=O)[C@H](CC(C)C)NC(=O)[C@H](CC(=O)O)NC(=O)[C@H](CCCNC(=N)N)NC(=O)[C@@H]2CCCN2C1=O [Peptide-37] | 0.00351 | –
8 | CSCC[C@@H]1NC(=O)[C@H](Cc2c[nH]cn2)NC(=O)[C@H](CCCNC(=N)N)NC(=O)[C@@H]2CCCN2C(=O)[C@@H](NC(=O)[C@H](Cc2c[nH]c3ccccc23)NC(=O)[C@H](CC(=O)O)NC(=O)[C@@H](N)CCSC)CSSC[C@@H](C(=O)N[C@@H](Cc2ccccc2)C(=O)N[C@@H](C)C(=O)O)NC(=O)[C@H](Cc2ccc(O)cc2)NC(=O)[C@H](CC(N)=O)NC(=O)[C@H](Cc2c[nH]c3ccccc23)NC1=O [Peptide-46] | 0.00218 | –
9 | CSCC[C@@H]1NC(=O)[C@H](Cc2ccccc2)NC(=O)[C@H](CCCNC(=N)N)NC(=O)[C@@H]2CCCN2C(=O)[C@@H](NC(=O)[C@H](Cc2c[nH]c3ccccc23)NC(=O)[C@H](CC(=O)O)NC(=O)[C@@H](N)CCSC)CSSC[C@@H](C(=O)N[C@@H](Cc2ccccc2)C(=O)N[C@@H](CC(N)=O)C(=O)O)NC(=O)[C@H](CCC(=O)O)NC(=O)[C@H](CC(=O)O)NC(=O)[C@H](Cc2c[nH]c3ccccc23)NC1=O [Peptide-45] | 0.00364 | –
10 | CSCC[C@@H]1NC(=O)[C@H](CC(=O)O)NC(=O)CNC(=O)[C@H](Cc2c[nH]c3ccccc23)NC(=O)[C@H](Cc2ccc(O)cc2)NC(=O)[C@H](Cc2c[nH]cn2)NC(=O)[C@@H](NC(=O)[C@H](Cc2ccc(O)cc2)NC(=O)CN)CSSC[C@@H](C(=O)NCC(=O)O)NC(=O)[C@H](Cc2c[nH]c3ccccc23)NC(=O)[C@H](CCSC)NC(=O)[C@H](C(C)C)NC1=O [Peptide-12] | – | kdis [1, 3]: 0.00167 s⁻¹; pKd (Ab-12): 7.88; kdis (Ab-12): 0.00127 s⁻¹
11 | CSCC[C@H](N)C(=O)N[C@@H](CC(=O)O)C(=O)N[C@@H](Cc1c[nH]c2ccccc12)C(=O)N[C@H]1CSSC[C@@H](C(=O)N[C@@H](Cc2ccccc2)C(=O)N[C@@H](C)C(=O)O)NC(=O)[C@H](CCC(=O)O)NC(=O)[C@H](Cc2c[nH]cn2)NC(=O)[C@H](Cc2c[nH]c3ccccc23)NC(=O)[C@H](CC(C)C)NC(=O)[C@H](CO)NC(=O)[C@H](CCCNC(=N)N)NC(=O)[C@@H]2CCCN2C1=O [Peptide-47] | 0.00201 | –
12 | CC[C@H](C)[C@@H]1NC(=O)[C@@H]2CCCN2C(=O)[C@@H](NC(=O)[C@H](Cc2c[nH]c3ccccc23)NC(=O)[C@H](CC(=O)O)NC(=O)[C@@H](N)CCSC)CSSC[C@@H](C(=O)N[C@@H](Cc2ccccc2)C(=O)N[C@@H](CC(N)=O)C(=O)O)NC(=O)[C@H](C(C)C)NC(=O)[C@H](Cc2c[nH]cn2)NC(=O)[C@H](Cc2c[nH]c3ccccc23)NC(=O)[C@H](CC(C)C)NC(=O)[C@H](Cc2c[nH]cn2)NC1=O [Peptide-32] | 0.00295 | –
13 | CSCC[C@@H]1NC(=O)[C@H](CC(=O)O)NC(=O)[C@H](CCCNC(=N)N)NC(=O)[C@@H]2CCCN2C(=O)[C@@H](NC(=O)[C@H](Cc2c[nH]c3ccccc23)NC(=O)[C@H](CC(=O)O)NC(=O)[C@@H](N)CCSC)CSSC[C@@H](C(=O)N[C@@H](Cc2ccccc2)C(=O)N[C@@H](CO)C(=O)O)NC(=O)[C@H](C(C)C)NC(=O)[C@H](CO)NC(=O)[C@H](Cc2c[nH]c3ccccc23)NC1=O [Peptide-44] | 0.00812 | –
14 | CSCC[C@H](N)C(=O)N[C@@H](CC(=O)O)C(=O)N[C@@H](Cc1c[nH]c2ccccc12)C(=O)N[C@H]1CSSC[C@@H](C(=O)N[C@@H](Cc2ccccc2)C(=O)N[C@@H](C)C(=O)O)NC(=O)[C@H](C(C)C)NC(=O)[C@H](CO)NC(=O)[C@H](Cc2c[nH]c3ccccc23)NC(=O)[C@H](CC(C)C)NC(=O)[C@H](Cc2c[nH]cn2)NC(=O)[C@H](C(C)C)NC(=O)[C@@H]2CCCN2C1=O [Peptide-50] | 0.00443 | –
15 | CSCC[C@@H]1NC(=O)[C@H](CC(=O)O)NC(=O)[C@H](CCCNC(=N)N)NC(=O)[C@@H]2CCCN2C(=O)[C@@H](NC(=O)[C@H](Cc2c[nH]c3ccccc23)NC(=O)[C@H](CC(=O)O)NC(=O)[C@@H](N)CCSC)CSSC[C@@H](C(=O)N[C@@H](Cc2ccccc2)C(=O)N[C@@H](C)C(=O)O)NC(=O)[C@H](CCC(=O)O)NC(=O)[C@H](CC(=O)O)NC(=O)[C@H](Cc2c[nH]c3ccccc23)NC1=O [Peptide-42] | 0.00433 | –
16 | CSCC[C@H](N)C(=O)N[C@@H](CC(=O)O)C(=O)N[C@@H](Cc1c[nH]c2ccccc12)C(=O)N[C@H]1CSSC[C@@H](C(=O)N[C@@H](Cc2ccccc2)C(=O)N[C@@H](C)C(=O)O)NC(=O)[C@H](C(C)C)NC(=O)[C@H](Cc2c[nH]cn2)NC(=O)[C@H](Cc2c[nH]c3ccccc23)NC(=O)[C@H](CC(C)C)NC(=O)[C@H](Cc2ccc(O)cc2)NC(=O)[C@H](CCCNC(=N)N)NC(=O)[C@@H]2CCCN2C1=O [Peptide-48] | 0.00187 | –
17 | CSCC[C@@H]1NC(=O)[C@H](Cc2c[nH]cn2)NC(=O)[C@H](CC(C)C)NC(=O)[C@@H]2CCCN2C(=O)[C@@H](NC(=O)[C@H](Cc2c[nH]c3ccccc23)NC(=O)[C@H](CC(=O)O)NC(=O)[C@@H](N)CCSC)CSSC[C@@H](C(=O)N[C@@H](Cc2ccccc2)C(=O)N[C@@H](CO)C(=O)O)NC(=O)[C@H](CCC(=O)O)NC(=O)[C@H](Cc2c[nH]cn2)NC(=O)[C@H](Cc2c[nH]c3ccccc23)NC1=O [Peptide-35] | 0.00497 | –
